Consider two compounds from patent publication US20200031873A1, “REPURPOSING CELL PENETRATING PEPTIDES AND THEIR NOVEL DERIVATIVES AND IOPROMIDE AND IODO-ARYL CARBONATES FOR TREATMENT OF SENESCENCE-RELATED DISEASES AND DISORDERS” (Eternans Limited, priority 2018, published 2020).

“Also recorded” adds a separate entry of the source. Where a SMILES comes first, the peptide text is derived from it.

For data set [1], the system named is BALB/c mice. Put plainly: Acute Sytemic Toxicity Test (ISO 10993-11). It counts as in vivo. Further details: hematological parameters, AST, ALT, ALP levels and gross pathology: dose or concentration left out as unconfirmed. The method, then:
Senolytic Peptides were evaluated for toxicity according to Acute Sytemic Toxicity Test (ISO 10993-11). This study was performed in strict accordance with the protocol approved by the TUBITAK-MAM Animal Ethics Committee. All the mice used in this study were of a BALB/c background at 8-12 weeks of age. All mice were kept in group housing until the start of the experiment after which they were placed in separate cages (5 mice per cage). […] Control and Senolytic Peptide (SEQ ID NO: 2) injected mice were sacrificed 24 hours later for pathological examination. […] Blood samples were subsequently collected for determination and analysis of hematological and biochemical parameters. Plasma alanine aminotransferase (ALT), aspartate aminotransferase (AST), alkaline phosphatase (ALP) activities and blood urea, glucose, triglyceride levels were determined, inter alia, full hematological parameters.

Data set [2] deals with senescent and non-senescent WI-38 fibroblasts. It counts as cell-based, human. The conditions noted are these: total doses 0 to 100 μM on 3 consecutive days, read after 7 days, listed as SEQ ID NO: 11. The method, then:
WI-38 cells (ATCC # CCL-75, a diploid primary human fibroblast adherent cell line derived from fetal lung tissue) were treated with a chemotherapy agent, 100 nM Doxorubicin twice every other day to induce senescence. […] Later these cells were used for experiments comparing them to their non-Doxorubicin (non-senescent) treated counterparts. Senescent and non-senescent WI-38 fibroblasts were plated for XTT viability assays. 7000 senescent (obtained as described above) and 2000 non-senescent WI-38 fibroblasts were plated in 96-well plates incubated. The cells were treated with mock (PBS) or the Senolytic Peptide (SEQ ID NO: 11) at total doses ranging from 0 to 100 μM. The mock and peptide treatments were carried out for 3 consecutive days (24, 48 and 72 hours) after plating. After treatment period, the cells were incubated for 7 days until XTT-based viability was analyzed according to the manufacturer's instructions. […] The Senolytic Peptide (SEQ ID NO: 2) was ordered from Chinese Peptide Company with TFA removal.

Consider `N=C(N)NCCC[C@H](NC(=O)[C@H](CCCNC(=N)N)NC(=O)[C@H](CCCNC(=N)N)NC(=O)[C@H](CCC(N)=O)NC(=O)[C@H](CCCNC(=N)N)NC(=O)[C@H](CCCNC(=N)N)NC(=O)[C@H](CCCCN)NC(=O)[C@H](CCCCN)NC(=O)[C@H](CCCNC(=N)N)NC(=O)CNC(=O)[C@H](Cc1ccc(O)cc1)NC(=O)[C@H](CCCNC(=N)N)NC(=O)[C@H](CCCNC(=N)N)NC(=O)[C@H](CCCNC(=N)N)NC(=O)[C@H](CCC(N)=O)NC(=O)[C@H](CCCNC(=N)N)NC(=O)[C@H](CCCNC(=N)N)NC(=O)[C@H](CCCCN)NC(=O)[C@H](CCCCN)NC(=O)[C@H](CCCNC(=N)N)NC(=O)CNC(=O)[C@H](Cc1ccc(O)cc1)NC(=O)[C@H](CCCNC(=N)N)NC(=O)[C@H](CCCNC(=N)N)NC(=O)[C@H](CCCNC(=N)N)NC(=O)[C@H](CCC(N)=O)NC(=O)[C@H](CCCNC(=N)N)NC(=O)[C@H](CCCNC(=N)N)NC(=O)[C@H](CCCCN)NC(=O)[C@H](CCCCN)NC(=O)[C@H](CCCNC(=N)N)NC(=O)CNC(=O)[C@@H](N)Cc1ccc(O)cc1)C(=O)O` [ID 2] (H-YGRKKRRQRRRYGRKKRRQRRRYGRKKRRQRRR-OH; N-terminus and C-terminus assumed), for which the “toxicity to the physical appearance of the mice” value in data set [1] (intravenous single injection, 1, 10, 50 and 100 mg/kg, within 24 hours) is “No toxicity to the physical appearance of the mice was observed”. Also, the “hematological parameters, AST, ALT, ALP levels and gross pathology” value in data set [1] (intravenous single injection, 24 hours, even at higher doses) was “no toxicity”.
With TRQARRNRRRRWRERQR [ID 11], in data set [2], the “viability of senescent vs non-senescent cells (XTT)” value was “selective decrease in the viability of senescent cells but not non-senescent cells; also recorded: selectively decreased the viability of senescent cells but not non-senescent cells”.
